From ChEMBL document CHEMBL3817845, “Development of CNS multi-receptor ligands: Modification of known D2 pharmacophores” (Bioorg Med Chem, 2016)

Columns and labels:
[1] = target: 5-hydroxytryptamine receptor 7 (Homo sapiens, UniProt P34969); test: Displacement of [3H]LSD from human recombinant 5HT7 receptor incubated for […] by microbeta scintillation counting method
[2] = target: 5-hydroxytryptamine receptor 2B (Homo sapiens, UniProt P41595); test: Displacement of [3H]LSD from human recombinant 5HT2B receptor incubated for […] by microbeta scintillation counting method
Sequence of 5-hydroxytryptamine receptor 2B (P41595 whole entry): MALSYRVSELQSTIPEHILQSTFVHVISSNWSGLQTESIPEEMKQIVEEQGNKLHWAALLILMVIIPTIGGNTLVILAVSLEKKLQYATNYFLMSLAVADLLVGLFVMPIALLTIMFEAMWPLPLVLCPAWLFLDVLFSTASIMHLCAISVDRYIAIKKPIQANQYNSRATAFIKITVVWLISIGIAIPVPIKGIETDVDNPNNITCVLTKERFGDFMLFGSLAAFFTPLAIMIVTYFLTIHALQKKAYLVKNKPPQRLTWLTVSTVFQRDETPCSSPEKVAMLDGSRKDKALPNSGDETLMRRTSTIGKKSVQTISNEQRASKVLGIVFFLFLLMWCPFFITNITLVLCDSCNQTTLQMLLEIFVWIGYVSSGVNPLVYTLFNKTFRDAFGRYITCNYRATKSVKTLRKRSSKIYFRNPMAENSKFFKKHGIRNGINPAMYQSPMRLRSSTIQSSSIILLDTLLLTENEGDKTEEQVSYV

[3] = target: Sodium-dependent serotonin transporter (Homo sapiens, UniProt P31645); test: Displacement of [3H]Citalopram from human recombinant SERT incubated for […] by microbeta scintillation counting method
D(2) dopamine receptor = D(2) dopamine receptor (Homo sapiens, UniProt P14416); test: Displacement of [3H]N-methylspiperone from human recombinant dopamine D2 receptor incubated for […] by microbeta scintillation counting method
Sequence of D(2) dopamine receptor (P14416 whole entry): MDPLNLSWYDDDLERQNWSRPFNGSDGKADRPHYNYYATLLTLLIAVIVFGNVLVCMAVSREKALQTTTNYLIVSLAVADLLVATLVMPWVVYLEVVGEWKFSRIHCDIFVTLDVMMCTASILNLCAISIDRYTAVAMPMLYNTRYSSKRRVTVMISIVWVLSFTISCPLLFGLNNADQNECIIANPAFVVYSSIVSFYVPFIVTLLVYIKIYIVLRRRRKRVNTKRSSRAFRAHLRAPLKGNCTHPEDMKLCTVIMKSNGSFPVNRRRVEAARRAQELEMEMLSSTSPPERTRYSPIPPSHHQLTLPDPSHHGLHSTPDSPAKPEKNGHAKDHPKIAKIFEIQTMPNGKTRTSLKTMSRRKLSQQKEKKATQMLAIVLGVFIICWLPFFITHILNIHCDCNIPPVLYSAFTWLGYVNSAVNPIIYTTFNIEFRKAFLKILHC

D(3) dopamine receptor [4] = target: T1, D(3) dopamine receptor (Homo sapiens, UniProt P35462); test: Displacement of [3H]N-methylspiperone from human recombinant dopamine D3 receptor incubated for […] by microbeta scintillation counting method
T1 sequence (P35462 whole entry): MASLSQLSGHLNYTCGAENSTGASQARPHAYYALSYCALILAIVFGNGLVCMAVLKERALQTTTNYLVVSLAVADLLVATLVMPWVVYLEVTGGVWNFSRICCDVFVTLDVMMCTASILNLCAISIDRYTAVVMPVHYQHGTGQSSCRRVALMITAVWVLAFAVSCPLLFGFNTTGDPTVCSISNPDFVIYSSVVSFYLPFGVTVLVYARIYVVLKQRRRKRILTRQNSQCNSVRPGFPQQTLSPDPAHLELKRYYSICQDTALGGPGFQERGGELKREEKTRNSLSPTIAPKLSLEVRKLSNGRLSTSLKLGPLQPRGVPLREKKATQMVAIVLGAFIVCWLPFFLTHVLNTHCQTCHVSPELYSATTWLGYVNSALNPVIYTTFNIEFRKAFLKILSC

D(4) dopamine receptor = target: T2, D(4) dopamine receptor (Homo sapiens, UniProt P21917); test: Displacement of [3H]N-methylspiperone from human recombinant dopamine D4 receptor incubated for […] by microbeta scintillation counting method
T2 sequence (P21917 whole entry): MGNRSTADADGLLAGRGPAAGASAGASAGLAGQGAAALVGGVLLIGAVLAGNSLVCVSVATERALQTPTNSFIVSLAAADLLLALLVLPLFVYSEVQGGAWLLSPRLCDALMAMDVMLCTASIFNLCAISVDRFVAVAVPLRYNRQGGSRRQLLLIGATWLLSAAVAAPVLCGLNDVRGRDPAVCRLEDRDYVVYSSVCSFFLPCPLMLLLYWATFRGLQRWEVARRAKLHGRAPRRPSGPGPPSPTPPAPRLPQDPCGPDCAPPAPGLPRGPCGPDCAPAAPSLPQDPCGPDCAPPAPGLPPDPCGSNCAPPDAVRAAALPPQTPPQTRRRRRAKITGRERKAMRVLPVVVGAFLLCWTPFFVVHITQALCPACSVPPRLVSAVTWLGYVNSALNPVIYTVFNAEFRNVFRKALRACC

[5] = target: T3, 5-hydroxytryptamine receptor 1A (Homo sapiens, UniProt P08908); test: (§1) Displacement of [3H]8-OH-DPAT from human recombinant 5HT1A receptor incubated for […] by microbeta scintillation counting method
T3 sequence (P08908 whole entry): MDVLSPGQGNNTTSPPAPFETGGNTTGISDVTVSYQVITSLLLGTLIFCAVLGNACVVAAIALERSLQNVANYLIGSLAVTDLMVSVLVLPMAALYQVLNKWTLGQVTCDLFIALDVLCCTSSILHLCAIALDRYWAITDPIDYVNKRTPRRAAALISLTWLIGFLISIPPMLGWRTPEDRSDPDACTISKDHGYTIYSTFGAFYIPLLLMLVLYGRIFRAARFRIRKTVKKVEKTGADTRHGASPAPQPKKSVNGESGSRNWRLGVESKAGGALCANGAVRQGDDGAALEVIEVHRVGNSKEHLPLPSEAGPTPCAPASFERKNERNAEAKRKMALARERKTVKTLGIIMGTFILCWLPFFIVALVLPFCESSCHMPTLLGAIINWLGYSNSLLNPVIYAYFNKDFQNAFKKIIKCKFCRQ

[6] = target: T4, 5-hydroxytryptamine receptor 2A (Homo sapiens, UniProt P28223); test: Displacement of [3H]Ketanserin from human recombinant 5HT2A receptor incubated for […] by microbeta scintillation counting method
T4 sequence (P28223 whole entry): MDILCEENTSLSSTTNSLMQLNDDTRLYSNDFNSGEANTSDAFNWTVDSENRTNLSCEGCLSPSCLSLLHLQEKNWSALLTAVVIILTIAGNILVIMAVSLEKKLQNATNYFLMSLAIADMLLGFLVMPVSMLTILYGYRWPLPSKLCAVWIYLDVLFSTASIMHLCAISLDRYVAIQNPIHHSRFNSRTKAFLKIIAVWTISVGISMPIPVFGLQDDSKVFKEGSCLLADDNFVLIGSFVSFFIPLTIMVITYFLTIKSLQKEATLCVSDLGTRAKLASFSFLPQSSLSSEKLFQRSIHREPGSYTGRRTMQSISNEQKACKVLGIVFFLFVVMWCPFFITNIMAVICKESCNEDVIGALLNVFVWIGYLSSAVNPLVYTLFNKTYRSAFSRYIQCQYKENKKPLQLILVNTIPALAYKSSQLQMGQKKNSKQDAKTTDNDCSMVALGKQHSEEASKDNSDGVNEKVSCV

[7] = target: T5, 5-hydroxytryptamine receptor 2C (5HT2C) (Homo sapiens, UniProt P28335); test: (§2) Displacement of [3H]Mesulergine from human recombinant 5HT2C receptor incubated for […] by microbeta scintillation counting method; settings: human, recombinant 5HT2C receptor, probe [3H]Mesulergine
T5 sequence (P28335 whole entry): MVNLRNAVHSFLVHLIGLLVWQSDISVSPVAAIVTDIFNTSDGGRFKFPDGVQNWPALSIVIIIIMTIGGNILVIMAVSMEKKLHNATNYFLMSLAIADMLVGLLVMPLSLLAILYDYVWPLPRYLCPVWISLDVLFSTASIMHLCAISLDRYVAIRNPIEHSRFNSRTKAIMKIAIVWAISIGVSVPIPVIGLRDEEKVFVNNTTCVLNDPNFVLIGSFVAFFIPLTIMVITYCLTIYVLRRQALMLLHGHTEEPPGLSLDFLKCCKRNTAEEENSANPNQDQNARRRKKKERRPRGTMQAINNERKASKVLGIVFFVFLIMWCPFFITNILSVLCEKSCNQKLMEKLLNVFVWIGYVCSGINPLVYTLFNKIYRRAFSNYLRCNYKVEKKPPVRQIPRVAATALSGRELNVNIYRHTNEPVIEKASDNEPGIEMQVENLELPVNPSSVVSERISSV

Histamine H1 receptor = Histamine H1 receptor (Homo sapiens, UniProt P35367); test: Displacement of [3H]Pyrilamine from human recombinant histamine H1 receptor incubated for […] by microbeta scintillation counting method
Sequence of Histamine H1 receptor (P35367 whole entry): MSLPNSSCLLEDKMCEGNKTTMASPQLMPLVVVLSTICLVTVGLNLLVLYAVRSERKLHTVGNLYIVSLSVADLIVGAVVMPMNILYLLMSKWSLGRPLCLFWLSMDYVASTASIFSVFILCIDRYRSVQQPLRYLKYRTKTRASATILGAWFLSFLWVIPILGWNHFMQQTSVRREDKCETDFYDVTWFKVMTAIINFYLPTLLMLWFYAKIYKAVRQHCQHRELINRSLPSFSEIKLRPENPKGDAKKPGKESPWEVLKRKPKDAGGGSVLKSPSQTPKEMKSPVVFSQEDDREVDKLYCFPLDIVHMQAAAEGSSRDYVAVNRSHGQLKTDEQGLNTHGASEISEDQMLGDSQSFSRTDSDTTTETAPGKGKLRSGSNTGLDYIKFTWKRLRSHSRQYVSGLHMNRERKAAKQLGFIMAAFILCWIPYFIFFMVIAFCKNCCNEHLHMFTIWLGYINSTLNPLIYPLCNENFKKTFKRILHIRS

[8] = target: T6, 5-hydroxytryptamine receptor 1A (Homo sapiens) (UniProt P08908); test: as §1
T6 sequence (whole entry): T3 sequence (P08908 whole entry)

D(3) dopamine receptor [9] = target: T1, D(3) dopamine receptor; test: Displacement of [125I]-IABN from human recombinant dopamine D3 receptor expressed in HEK293 cell membrane incubated for 60 mins filtration binding assay
[10] = target: T4, 5-hydroxytryptamine receptor 2A; test: Binding affinity to 5HT2A receptor (unknown origin)
[11] = Lipophilicity, log P of the compound; format: physicochemical; settings: octanol/water
[12] = target: T7, 5-hydroxytryptamine receptor 2C (Homo sapiens, UniProt P28335); test: as §2
T7 sequence (P28335 whole entry): T5 sequence (P28335 whole entry)

Sequence of 5-hydroxytryptamine receptor 7 (P34969 whole entry): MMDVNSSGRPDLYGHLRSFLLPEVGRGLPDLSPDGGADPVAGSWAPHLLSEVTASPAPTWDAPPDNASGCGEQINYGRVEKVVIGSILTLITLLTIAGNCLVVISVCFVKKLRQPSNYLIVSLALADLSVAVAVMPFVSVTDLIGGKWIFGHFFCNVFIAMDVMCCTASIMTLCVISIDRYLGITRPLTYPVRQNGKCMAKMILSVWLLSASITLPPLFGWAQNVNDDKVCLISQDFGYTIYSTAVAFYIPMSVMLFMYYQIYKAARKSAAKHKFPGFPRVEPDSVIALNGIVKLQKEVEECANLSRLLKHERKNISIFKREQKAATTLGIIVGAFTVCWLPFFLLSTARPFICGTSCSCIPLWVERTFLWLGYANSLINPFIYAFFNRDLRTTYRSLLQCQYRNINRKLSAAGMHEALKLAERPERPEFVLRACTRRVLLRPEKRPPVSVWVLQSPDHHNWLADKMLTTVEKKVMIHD

SMILES | Ki [1] [µM] | Ki [2] [µM] | Ki (D(2) dopamine receptor) [µM] | Ki (D(3) dopamine receptor [4]) [µM] | Ki (D(4) dopamine receptor) [µM] | Ki [5] [µM] | Ki [6] [µM] | inhibition at […] [7] [%] | Ki (Histamine H1 receptor; read-out: Ki) [µM] | further results
OC1(c2ccc(Cl)cc2)CC2CCC(C1)N2CCCCc1nc2ccccc2s1 (stereo not drawn) | 1.01 | 0.342 |  |  |  |  |  |  |  | Ki ([3]; read-out: Ki): 0.18 µM
O=C1NCN(c2ccccc2)C12CCN(CCCCc1nc3ccccc3s1)CC2 | 0.626 | 0.122 | 0.024 | 0.032 | 0.132 | 0.195 | > 10 | < 50 | 0.504 | inhibition [3]: < 50%
Cl.O=C(CCCCN1C2CCC1CC(O)(c1ccc(Cl)cc1)C2)c1nc2ccccc2s1 (stereo not drawn) | 0.08 | 0.758 |  |  |  |  |  | < 50 | 1.03 | pKi (D(2) dopamine receptor): 6.74; inhibition [8]: < 50%; inhibition [6]: < 50%; Ki ([3]; read-out: Ki): 0.054 µM; Ki ([3]; read-out: pKi (converted)): 0.00468 µM
OC1(c2ccc(Cl)cc2)CCN(CCCCc2nc3ccccc3s2)CC1 |  |  |  | 0.291 |  |  |  |  |  | 
OC1(c2ccc(Cl)cc2)CCN(CCCCc2nc3ccccc3o2)CC1 |  |  | 0.438 | 0.942 | 0.229 | 3.15 | 5.97 |  |  | inhibition [1]: < 50%
O=C(CCCCN1CCC2(CC1)C(=O)NCN2c1ccccc1)c1nc2ccccc2s1 |  |  |  | 0.018 | 0.162 |  |  | < 50 |  | 
O=C(CCCN1CCC(n2c(O)nc3ccccc32)CC1)c1ccc(F)cc1 [BENPERIDOL] |  |  |  |  |  |  |  |  |  | Ki (D(3) dopamine receptor [9]): 0.00029 µM; Ki [10]: 0.0012 µM
O=C1NCN(c2ccccc2)C12CCN(CCCCc1c[nH]c3ccccc13)CC2 | > 10 | 0.202 |  | 0.031 | 0.0016 | 0.376 |  | < 50 | 0.273 | Ki ([3]; read-out: Ki): 0.01 µM; Ki ([3]; read-out: pKi (converted)): 0.00468 µM; logP [11]: 3.52
OC1(c2ccc(Cl)cc2)CCN(CCCc2nc3ccccc3s2)CC1 | 0.189 |  | 0.763 | 0.028 | 0.163 | 0.034 | 0.168 |  |  | 
O=C(CCCN1CCC2(CC1)C(=O)NCN2c1ccccc1)c1ccc(F)cc1 [SPIPERONE] |  |  |  |  |  |  |  |  |  | logP [11]: 2.78
O=C(CCCCN1CCN(C(c2ccc(F)cc2)c2ccc(F)cc2)CC1)c1nc2ccccc2s1 | 0.562 |  | 0.159 | 0.233 | 1.22 |  | 1.08 |  |  | inhibition [8]: < 50%
Fc1ccc(C(c2ccc(F)cc2)N2CCN(CCCCc3nc4ccccc4s3)CC2)cc1 | 0.778 |  | 0.195 | 0.033 | 0.068 |  | 0.519 |  |  | inhibition [8]: < 50%
O=C1NCN(c2ccccc2)C12CCN(CCCCc1nc3ccccc3o1)CC2 | 1.51 | 0.905 | 0.01 | 0.021 | 0.118 | 0.382 |  | < 50 | 0.535 | inhibition [6]: < 50%; inhibition [3]: < 50%
O=C(CCCN1CCC(O)(c2ccc(Cl)cc2)CC1)c1ccc(F)cc1 [HALOPERIDOL] |  |  |  |  |  |  |  |  |  | logP [11]: 3.49
O=C1NCN(c2ccccc2)C12CCN(CCCCc1nc3cc(Cl)ccc3s1)CC2 |  | 0.036 | 0.018 | 0.499 |  | 0.102 |  |  | 0.263 | Ki [12]: 0.614 µM; Ki ([3]; read-out: Ki): 3.06 µM; Ki (Histamine H1 receptor; read-out: pKi (converted)): 0.275 µM
O=C(CCCCN1CCC(n2c(=O)[nH]c3cc(Cl)ccc32)CC1)c1nc2ccccc2s1 |  |  |  | 0.064 |  |  |  |  |  | 
